In patent US20060122189A1, “Phenylpiperazine derivatives with a combination of partial dopamine-D2 receptor agonism and serotonin reuptake inhibition” (priority 2004, published 2006):

What was measured:
[1] = target: T1, Human dopamine D2,L receptors (Homo sapiens, UniProt P14416); assay: Inhibition of forskolin-induced [3H]-cAMP accumulation in CHO-K1 cells; assay type: cell-based; details: cloned human dopamine D2,L receptors; full agonist ε=1, full antagonist ε=0
T1 construct: host or cells: CHO-K1
T1 sequence (P14416 whole entry): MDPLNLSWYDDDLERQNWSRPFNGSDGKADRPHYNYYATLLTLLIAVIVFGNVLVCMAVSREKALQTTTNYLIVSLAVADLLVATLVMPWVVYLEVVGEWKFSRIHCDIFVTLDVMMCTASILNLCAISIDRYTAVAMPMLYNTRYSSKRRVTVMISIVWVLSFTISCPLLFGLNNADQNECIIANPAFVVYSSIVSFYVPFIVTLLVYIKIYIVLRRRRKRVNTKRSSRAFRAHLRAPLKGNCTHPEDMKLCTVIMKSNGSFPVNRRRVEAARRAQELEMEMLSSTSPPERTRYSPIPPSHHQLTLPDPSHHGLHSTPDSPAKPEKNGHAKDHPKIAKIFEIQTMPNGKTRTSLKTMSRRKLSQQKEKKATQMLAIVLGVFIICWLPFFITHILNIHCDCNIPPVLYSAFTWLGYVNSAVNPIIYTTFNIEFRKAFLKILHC
Method: Inhibition of Forskolin-Induced [^3H]-cAMP Accumulation
The in vitro functional activity at dopamine-D2 receptors, including the intrinsic activity (E) of the compounds of the invention was measured by their ability to inhibit forskolin-induced [^3H]-cAMP accumulation.
Human dopamine D2,L receptors were cloned in fibroblast cell line CHO-K1′ cells and obtained from Dr. Grandy, Vollum Institute, Portland, Oreg., USA. CHO cells were grown in a Dulbecco's modified Eagle's medium (DMEM) culture medium, supplemented with 10% heat-inactivated fetal calf serum, 2 mM glutamine, 1 mM pyruvate, 5000 units/ml penicillin, 5000 μg/ml streptomycin and 200 μg/ml G-418 at 37° C. in 93% air/7% CO2. For incubation with test compounds, confluent cultures grown in 24 wells plates were used. Each condition or substance was routinely tested in quadruplicate. Cells were loaded with 1 μCi [^3H]-adenine in 0.5 ml medium/well. After 2 hours, cultures were washed with 0.5 ml PBS containing 1 mM of the phosphodiesterase inhibitor isobutylmethylxanthine (IBMX) and incubated for 20 min with 0.5 ml PBS containing 1 mM IBMX and forskolin with or without test compound. After aspiration the reaction was stopped with 1 ml trichloroacetic acid 5% (w/v). […] 0.8 ml Extract was passed over Dowex (50WX-4 200-400 mesh) and aluminumoxide columns, eluted with water and 0.1M imidazole (pH=7.5). Eluates were mixed with 7 ml Insta-gel and radioactivity was counted with a liquid scintillation counter. The conversion of [^3H]-ATP into [^3H]-cAMP was expressed as the ratio in percentage radioactivity in the cAMP fraction as compared to combined radioactivity in both cAMP and ATP fractions, and basal activity was subtracted to correct for spontaneous activity.
Test compounds were obtained as 10 mM stock solutions in 100% DMSO, and diluted in PBS/IBMX to final concentrations. Typically, compounds were used in concentrations that ranged from 10^−10M to 10^−5M. From quadruplicate data counts, the mean was taken as an estimate for drug-induced, receptor-mediated effects at specified second messenger accumulation, expressed as percentage of control values (forskolin-stimulated cAMP accumulation, subtracted by basal activity). By using the non-linear curve-fitting program INPLOT or the Excel-add-in XL-Fit, mean values were plotted against drug concentration (in molar) and a sigmoid curve (four-parameter logistic curve) was constructed. The maximal forskolin-induced stimulated conversion is taken as maximum value and the maximal inhibition (usually at drug concentrations 10^−4 M or 10^−5 M) as minimum and these values were fixed during the fitting process. Thus, concentrations of the compound, causing 50% of the maximally obtained inhibition of forskolin-induced cAMP accumulation (EC50), are averaged over several experiments and presented as mean pEC50±SEM. Antagonist potency is assessed by co-incubating cells with a fixed agonist concentration and specified antagonist concentrations. Curve fitting procedures are identical to those used for estimating EC50 values. Thus IC50 values, i.e. the concentration that is able to achieve 50% of maximal antagonism that can be achieved by this compound. IC50 values are corrected using a Cheng-Prussoff equation, correcting it for agonist concentration and EC50 values that is obtained in the same experiment. Thus, Kb=IC50/(1+[agonist]/EC50, agonist). The corresponding pA2 value is −log (Kb). Concentration-response curve fitting allows estimation of pEC50 values and of maximal achievable effect (intrinsic activity or efficacy (ε). A full receptor agonist has ε=1, a full receptor antagonist has ε=0, and a partial receptor agonist has an intermediate intrinsic activity.

serotonin reuptake sites = target: T2, serotonin reuptake sites (Rattus norvegicus, UniProt P31652); assay: In vitro affinity for serotonin reuptake sites ([3H]-paroxetine binding); details: read-out: 5-HT reuptake binding pKi (converted)
T2 construct: from tissue
T2 sequence (P31652 whole entry): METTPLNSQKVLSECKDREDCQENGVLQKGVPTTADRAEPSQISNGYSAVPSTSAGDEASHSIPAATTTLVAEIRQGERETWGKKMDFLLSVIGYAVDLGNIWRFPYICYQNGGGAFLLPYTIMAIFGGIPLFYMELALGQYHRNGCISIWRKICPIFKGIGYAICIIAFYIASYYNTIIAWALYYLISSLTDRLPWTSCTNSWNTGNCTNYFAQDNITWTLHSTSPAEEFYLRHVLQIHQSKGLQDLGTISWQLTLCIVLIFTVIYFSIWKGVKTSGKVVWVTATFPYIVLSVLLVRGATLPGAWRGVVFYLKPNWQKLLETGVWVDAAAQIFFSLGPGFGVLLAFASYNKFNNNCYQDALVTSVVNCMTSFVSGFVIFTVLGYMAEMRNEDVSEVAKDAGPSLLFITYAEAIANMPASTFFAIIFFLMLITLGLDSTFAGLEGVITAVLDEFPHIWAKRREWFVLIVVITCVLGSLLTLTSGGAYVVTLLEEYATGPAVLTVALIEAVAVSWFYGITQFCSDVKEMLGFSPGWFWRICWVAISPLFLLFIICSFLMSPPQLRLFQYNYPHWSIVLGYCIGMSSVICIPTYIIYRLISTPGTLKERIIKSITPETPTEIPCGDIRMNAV
Method: In Vitro Affinity for Serotonin Reuptake Sites
Affinity of the compounds for serotonin reuptake sites was determined using the receptor binding assay described by E. Habert et al.,: “Characterisation of [^3H]-paroxetine binding to rat cortical membranes”, Eur. J. Pharmacol., 118, 107-114, 1985.

Row | SMILES | Dopamine-D2 cAMP accum ε (intrinsic activity) [1] | Ki (serotonin reuptake sites) | melting point
1 | N#Cc1ccc2occ(CCCCN3CCN(c4cccc5[nH]c(=O)oc45)CC3)c2c1 [Compound 6] | 0.85 | 0.158 nM | 180 to 182 °C
2 | O=c1[nH]c2cccc(N3CCN(CCCc4csc5ccc(Cl)cc45)CC3)c2o1 [Compound 7] | 0.39 | 3.16 nM | 211 to 213 °C
3 | O=c1[nH]c2cccc(N3CCN(CCCc4csc5ccc(F)cc45)CC3)c2o1 [Compound 8] | 0.10 | 1.26 nM | 193 to 195 °C
4 | O=c1[nH]c2cccc(N3CCN(CCCCn4ccc5ccc(F)cc54)CC3)c2o1 [Compound 16] | 0.73 | 0.794 nM | 143 to 145 °C
5 | Cn1c(=O)oc2c(N3CCN(CCCCc4csc5ccc(C#N)cc45)CC3)cccc21 [Compound 94] | 0.70 | 3.16 nM | 184 to 186 °C
6 | Cn1c(=O)oc2c(N3CCN(CCC#Cc4ccc5ccc(F)cc5c4)CC3)cccc21 [Compound 135] | 0.45 | 2 nM | –
